# Data as given in patent US8258098B2, “Antitumoral treatments” (Pharma Mar, S.A., priority 2006, dated 2012).
# pIC50: −log10 of the molar value.
# Experiments:
# [1] = test system: MRI-H187 melanoma tumor xenografts; assay: Net tumor volume in tumor xenografts; format: in vivo, female athymic mice; details: Aplidine 50 μg/kg, DTIC 40 mg/kg, Carboplatin 25 mg/kg, i.p.
# Description: (§1) Athymic nude female mice were received from Harlan Sprague Dawley, Madison, Wis. at 4-5 weeks of age. Mice were acclimated to the laboratory for at least one week prior to implantation of tumor. Animals were housed in static cages with food and water allowed ad libitum. Experimental animals were implanted with either tumor fragments derived from transplantation established human tumors or with cells obtain directly from in vitro culture. Tumors were implanted subcutaneously on the right flank on Day 0.
# (§2) Tumor size measurements were recorded twice weekly beginning on day 4 or 5 using vernier calipers. The formula to calculate volume for a prolate ellipsoid was used to estimate tumor volume from 2-dimensional tumor measurements: tumor volume (mm^3)=(length×width^2)÷2. Assuming unit density, volume was converted to weight (i.e., 1 mm^3=1 mg). […] Treatments were initiated and administered on an individual body weight basis. A dose range finding study was performed on each tumor model to determine the appropriate dose level of each compound used in the combination studies.
# [2] = test system: LOX-IMVI melanoma tumor xenografts; assay: Net tumor volume in tumor xenografts; format: in vivo, female athymic mice; details: DTIC 30 mg/kg, Carboplatin 25 mg/kg, i.p.
# Description: as §1, §2
# [3] = test system: UACC-257 cells; assay: MTS assay Example 2, single agents and combinations; format: cell-based; details: UACC-257, MTS; read-out: IC50 (Molar)
# Experimental: (§3) The day before plating cells all cultures were fed with fresh, complete growth media. On the harvest (plating) day cells were counted by Trypan Blue exclusion staining method.
# (§4) Cells were harvested and seeded in 96 well microtiter plates at 15,000 cells per well in 190 μl of media and incubated for 24 hours to allow the cells to attach before drug addition.
# (§5) The cytotoxic effect was measured by the MTS Assay (Tetrazolium), which is a colorimetric method for determining the number of viable cells.
# (§6) After 72 hours of incubation with tested agents 25 μl of MTS+PMS solution was added to each microtiter well and incubated for 4 hours at 37° C. Plates were then removed from incubator and placed on plate shaker for 5 minutes (covered with aluminum foil for protection from light). Optical densities were read at 490 nm on spectrophotometer plate reader. Data was analyzed as: • 1. Prism (Graphpad) software program was used to normalized the data to control values (100%=cell growth in the absence of agent (drug); 0%=blank control). • 2. Data normalized were plotted as scatter plots.
# (§7) Conversely, antagonism was concluded when inhibition was lower than both maxima. […] Statistical significance was assessed by performing a student's t-test on the inhibition at each dose ratio versus the inhibition at the maximum for each drug.
# (§8) As a visual aid, response values were plotted on a scatter plot with dose ratios given on the x-axis and % response values on the y-axis. […] In cases where response values at the two endpoints were approximately equivalent, points lying above or below this predicted line of additivity could be interpreted as representing antagonistic or synergistic drug interaction respectively.
# [4] = test system: LOXIMVI cells; assay: as above; format: cell-based; details: read-out: IC50 (Molar)
# Experimental: as §3, §4, §5, §6, §7, §8
# [5] = test system: PC3 cells; assay: MTS cytotoxicity assay, 72 hours, single agents and combinations with Aplidine; format: cell-based; details: PC3, 72 hours drug exposure, read-out: IC50 (Molar)
# Experimental: (§9) Day before plating cells all cultures were fed with fresh, complete growth media. On the harvest (plating) day cells were counted by Trypan Blue exclusion staining method (basic cell culture). Cells were harvested and seeded in 96 well microtiter plates at 10,000 cells per well in 190 μL of media and incubated for 24 hours to allow the cells to attach before drug addition. Cells were treated with the drugs and the cytotoxic effect was measured by the MTS Assay (Tetrazolium), which is a colorimetric method for determining the number of viable cells. After the 72 hours of incubation with drug, 25 μL of MTS+PMS solution was added to each microtiter well and incubated for 4 hours at 37° C. Plates were then removed from incubator and placed on plate shaker for 5 minutes (covered with aluminium foil for protection from light). Optical densities were read at 490 nm on spectrophotometer plate reader.
# (§10) The microtiter plates were incubated for 72 hrs, at 5% CO2 and 37° C. The cytotoxic effect was measured by MTS Assay. Optical densities read at 490 nm. Normalized data was plotted and interpreted as described. Data was analysed as: • 1. Prism (Graphpad) software program was used to normalized the data to control values (100%=cell growth in the absence of agent (drug); 0%=blank control). • 2. Data normalized were plotted as scatter plots.
# as §7
# as §8, with “interaction,” for “interaction”
# [6] = test system: MX1 cells; assay: as above; format: cell-based; details: MX1, 72 hours drug exposure, read-out: IC50 (Molar)
# Experimental: as §9, §10, §7
# as §8, with “interaction,” for “interaction”
# [7] = test system: HL60 cells; assay: as above; format: cell-based; details: HL60, 72 hours drug exposure, read-out: IC50 (Molar)
# Experimental: as §9, §10, §7
# as §8, with “interaction,” for “interaction”
# [8] = test system: HT29 cells; assay: as above; format: cell-based; details: HT29, 72 hours drug exposure, read-out: IC50 (Molar)
# Experimental: as §9, §10, §7
# as §8, with “interaction,” for “interaction”
# [9] = test system: SKBR3 cells; assay: as above; format: cell-based; details: SKBR3, 72 hours drug exposure, read-out: IC50 (Molar)
# Experimental: as §9, §10, §7
# as §8, with “interaction,” for “interaction”
# [10] = test system: A549 cells; assay: as above; format: cell-based; details: A549, 72 hours drug exposure, read-out: IC50 (Molar)
# Experimental: as §9, §10, §7
# as §8, with “interaction,” for “interaction”
# [11] = test system: MOLT3 cells; assay: as above; format: cell-based; details: MOLT3, 72 hours drug exposure, read-out: IC50 (Molar)
# Experimental: as §9, §10, §7
# as §8, with “interaction,” for “interaction”
compound,measurement,setting,value
N.N.O=C([O-])C1(C(=O)[O-])CCC1.[Pt+2] [carboplatin],Net Tumor Volume ± S.E.M.,"[1]; MRI-H187, DAY 24",213 ± 32 mg
same,Net Tumor Volume ± S.E.M.,"[1]; MRI-H187, DAY 27",301 ± 50 mg
same,Net Tumor Volume ± S.E.M.,"[1]; MRI-H187, DAY 34",540 ± 99 mg
same,Net Tumor Volume ± S.E.M.,"[1]; MRI-H187, DAY 38",793 ± 132 mg
same,Net Tumor Volume ± S.E.M.,"[1]; MRI-H187, DAY 41",917 ± 138 mg
same,Net Tumor Volume ± S.E.M.,"[1]; MRI-H187, DAY 46",1303 ± 237 mg
same,Net Tumor Volume ± S.E.M.,"[1]; MRI-H187, DAY 52",1603 ± 288 mg
same,Net Tumor Volume ± S.E.M.,"[1]; MRI-H187, DAY 55",1989 ± 373 mg
same,Net Tumor Volume ± S.E.M.,"[1]; MRI-H187, DAY 59",2292 ± 487 mg
same,Net Tumor Volume ± S.E.M.,"[1]; MRI-H187, DAY 62",2659 ± 492 mg
same,Net Tumor Volume ± S.E.M.,"[1]; MRI-H187, DAY 66",2723 ± 519 mg
same,Net Tumor Volume ± S.E.M.,"[2]; DAY 6, Aplidine 50 μg/kg",107 ± 3 mg
same,Net Tumor Volume ± S.E.M.,"[2]; DAY 8, Aplidine 50 μg/kg",347 ± 43 mg
same,Net Tumor Volume ± S.E.M.,"[2]; DAY 12, Aplidine 50 μg/kg",1167 ± 117 mg
same,Net Tumor Volume ± S.E.M.,"[2]; DAY 14, Aplidine 50 μg/kg",2936 ± 543 mg
same,Net Tumor Volume ± S.E.M.,"[2]; DAY 19, Aplidine 50 μg/kg",4598 ± 1182 mg
same,pIC50,[3],3.77
same,pIC50,[4],3.92
same,pIC50,[5],< 4.00
same,pIC50,[6],< 4.00
same,pIC50,[7],4.25
same,pIC50,[8],3.59
same,pIC50,[9],4.28
same,pIC50,[10],3.51
same,pIC50,[11],5.40
